The test system of test [1] is MCF7-WT cells (MCF7 ER-alpha wildtype). Nature of the test: In vitro proliferation (viability) assay, MCF7-WT cells. The format is cell-based. Conditions: Homo sapiens. On the procedure:
(§1) MCF7 BUS cells (Coser, et al., (2003) PNAS 100(24): 13994-13999) were maintained in Dulbecco's Modified Eagle Medium supplemented with 10% FBS, 4 mM L-glutamine and 1× non-essential amino acids. Lenti-X 293T cells (Clontech, Cat #632180) were routinely cultured in Dulbecco's Modified Eagle Medium supplemented with 10% FBS.
(§2) The QuikChange II XL Site-Directed Mutagenesis Kit (Agilent Technologies, Cat #200523) was used to generate Y537S, Y537C, Y537N and D538G mutations within the ERα exon 8. Wild-type ESR1 cDNA (GeneCopoeia Inc., Cat# GC-A0322, accession no. NM 000125) was used as a template with the following mutagenesis primers (where the underlined nucleotides represent site mutations); Y537S: F-AAGAACGTGGTGCCCCTCTCTGACCTGCTGCTGGAGATG (SEQ ID NO: 1), R-CATCTCCAGCAGCAGGTCAGAGAGGGGCACCACGTTCTT (SEQ ID NO: 2); Y537N: F-AAGAACGTGGTGCCCCTCAATGACCTGCTGCTGGAGATG (SEQ ID NO: 3), R-CATCTCCAGCAGCAGGTCATTGAGGGGCACCACGTTCTT (SEQ ID NO: 4); Y537C: F-AAGAACGTGGTGCCCCTCTGTGACCTGCTGCTGGAGATG (SEQ ID NO: 5), R-CATCTCCAGCAGCAGGTCACAGAGGGGCACCACGTTCTT (SEQ ID NO: 6); D538G: F-AACGTGGTGCCCCTCTATGGCCTGCTGCTGGAGATGCTG (SEQ ID NO: 7), R-CAGCATCTCCAGCAGCAGGCCATAGAGGGGCACCACGTT (SEQ ID NO: 8). WT and mutant ESR1 cDNAs were cloned into the designation lentiviral vector pLenti6.3/V5-Dest (Invitrogen, Cat #V533-06). To make lentivirus, DNAs (WT and mutant ESR1) were co-transfected with packaging plasmids into Lenti-X 293T cells using TransIT (Mirus, Cat #MIR 2700). 48 h post-transfection, virus containing media was filtered and added to MCF7 cells in the presence of 8 µg/ml polybrene overnight. Two days following infection, cells were placed under selection with 10 µg/ml blasticidin for 2 weeks for stable expression.
(§3) MCF7-WT and -Y537S cells were seeded at 1500 cells/well in black-walled 96-well plates (assay plates, Costar, Cat #3904). In parallel, cells were also seeded in a separate 96-well plate (8 wells/cell line, control plate) for which a CTG (CellTiter-Glo® Luminescent Viability Assay, Promega, Cat #G7572) was measured the following day (day 0 reading). The day 0 reading was used for the GI50 calculation at the termination of the experiment. The day following seeding, compounds were added to assay plates. Briefly, a 1:4 serial dilution was prepared in DMSO at 200× final concentration for a total of 10 concentrations (9 dilutions containing compound and one is DMSO only). Serially diluted compounds were pipetted into medium to prepare a compound-medium mix at 10× final concentration. 10 μl of compound-medium mix was added to MCF7-WT and -Y537S cells at 3 wells/concentration (triplicate for each concentration). On day 3, media/compound was removed and replaced with fresh media/compound as described above. On day 6, CTG was measured and compared to day 0 readings from control plate to assess GI50.

Test [2] has as its system MCF7-Y537S cells (MCF7 ER-alpha Y537S mutant). In words: In vitro proliferation (viability) assay, MCF7-Y537S cells. The format is cell-based. Particulars: Homo sapiens. On the procedure:
as §1, §2, §3

Where [3] appears, read: MCF7, CellTiter-Glo, day 6 vs day 0, average ± standard deviation, free base and/or salt forms, read-out: MCF7 WT GI50.
Where [4] appears, read: MCF7, CellTiter-Glo, day 6 vs day 0, average ± standard deviation, free base and/or salt forms, read-out: MCF7 Y537S GI50.

Structures are written as SMILES. Where two headings read alike, the source gives them in different places.

By GI50 is commonly meant the concentration giving 50% growth inhibition. Consider `CNC(=O)/C=C/CNCCOc1ccc(/C(CC(F)(F)F)=C(\c2ccccc2)c2ccc3[nH]nc(F)c3c2)cn1` [Compound 5, (E)-N-methyl-4-((2-((5-((E)-4,4,4-trifluoro-1-(3-fluoro-1H-indazol-5-yl)-1-phenylbut-1-en-2-yl)pyridin-2-yl)oxy)ethyl)amino)but-2-enamide], for which the 50% growth inhibitory concentration (GI50) in test [1] (setting [3]) came out at 88.5 ± 42.7 nM; in test [2] (setting [4]), 180 ± 227 nM.

Regarding `O=C(O)/C=C/CNCCOc1ccc(/C(=C(/CC(F)(F)F)c2ccccc2)c2ccc3[nH]nc(F)c3c2)cn1` [Compound 72, (E)-4-((2-((5-((Z)-4,4,4-trifluoro-1-(3-fluoro-1H-indazol-5-yl)-2-phenylbut-1-en-1-yl)pyridin-2-yl)oxy)ethyl)amino)but-2-enoic acid], the figures for the 50% growth inhibitory concentration (GI50) in test [1] (setting [3]) and in test [2] (setting [4]) were 1.86 ± 0.87 nM and 22.2 ± 14.3 nM, respectively.

For `O=C(/C=C/CNCCOc1ccc(/C(=C(/CC(F)(F)F)c2ccccc2)c2ccc3[nH]nc(F)c3c2)cc1)N1CCCCC1` [Compound 52, (E)-1-(piperidin-1-yl)-4-((2-(4-((E)-4,4,4-trifluoro-1-(3-fluoro-1H-indazol-5-yl)-2-phenylbut-1-en-1-yl)phenoxy)ethyl)amino)but-2-en-1-one], the concentration for 50% growth inhibition (GI50) in test [1] (setting [3]) turned out to be 1.2 nM; in test [2] (setting [4]) it was 9.3 nM.

In the case of `CNC(=O)/C=C/CNCCOc1ncc(/C(=C(/CC(F)(F)F)c2ccccc2)c2ccc3[nH]nc(F)c3c2)cn1` [Compound 45, (E)-N-methyl-4-((2-((5-((Z)-4,4,4,4-trifluoro-1-(3-fluoro-1H-indazol-5-yl)-2-phenylbut-1-en-1-yl)pyrimidin-2-yl)oxy)ethyl)amino)but-2-enamide], the values for the concentration for 50% growth inhibition (GI50) in test [1] (setting [3]) and in test [2] (setting [4]) were 23.2 ± 9.42 nM and 71 ± 8.63 nM, respectively.

Turning to `CNC(=O)/C=C/CNCCOc1cnc(/C(=C(/CC(F)(F)F)c2ccccc2)c2ccc3[nH]nc(F)c3c2)cn1` [Compound 74, (E)-N-methyl-4-((2-((5-((Z)-4,4,4,4-trifluoro-1-(3-fluoro-1H-indazol-5-yl)-2-phenylbut-1-en-1-yl)pyrazin-2-yl)oxy)ethyl)amino)but-2-enamide], the values for the concentration for 50% growth inhibition (GI50) in test [1] (setting [3]) and in test [2] (setting [4]) were 2.47 ± 0.18 nM and 29.4 ± 11.5 nM, respectively.

Take `O=C1NCCC1CCNCCOc1ccc(/C(=C(/CC(F)(F)F)c2ccccc2)c2ccc3[nH]nc(F)c3c2)cn1` (stereo not drawn) [Compound 53, (Z)-3-(2-((2-((5-(4,4,4-trifluoro-1-(3-fluoro-1H-indazol-5-yl)-2-phenylbut-1-en-1-yl)pyridin-2-yl)oxy)ethyl)amino)ethyl)pyrrolidin-2-one]: the 50% growth inhibitory concentration (GI50) came to 0.3 nM in test [1] (setting [3]) and 1.8 nM in test [2] (setting [4]).

For `O=C(/C=C/CNCCOc1ccc(/C(=C(\c2ccccc2)C2CCC2)c2ccc3[nH]ncc3c2)cc1)N1CCCC1` [Compound 35], the GI50 worked out at 3.06 ± 0.25 nM in test [1] (setting [3]) and 27.3 ± 19.9 nM in test [2] (setting [4]).

In the case of `CC/C(=C(/c1ccc(OCCNC/C=C/C(=O)NC)nc1)c1ccc2[nH]ncc2c1)c1ccccc1` [Compound 28, (E)-4-((2-((5-((Z)-1-(1H-indazol-5-yl)-2-phenylbut-1-en-1-yl)pyridin-2-yl)oxy)ethyl)amino)-N-methylbut-2-enamide], the concentration for 50% growth inhibition (GI50) amounted to 4.12 ± 1.6 nM in test [1] (setting [3]) and 9.08 ± 5.26 nM in test [2] (setting [4]).

With `O=C1CCCN1CCOc1ccc(/C(=C(/CC(F)(F)F)c2ccccc2)c2ccc3[nH]nc(F)c3c2)cn1` [Compound 12, (Z)-1-(2-((5-(4,4,4-trifluoro-1-(3-fluoro-1H-indazol-5-yl)-2-phenylbut-1-en-1-yl)pyridin-2-yl)oxy)ethyl)pyrrolidin-2-one], the 50% growth inhibitory concentration (GI50) worked out at 1.45 nM in test [1] (setting [3]) and 24 nM in test [2] (setting [4]).

Regarding `Cl.[2H]C([2H])([2H])N(C(=O)/C=C/CNCCOc1ccc(/C(=C(/CC(F)(F)F)c2ccccc2)c2ccc3[nH]ncc3c2)cn1)C([2H])([2H])[2H]` [Compound 25, (E)-N,N-di(H3)methyl-4-((2-((5-((Z)-4,4,4-trifluoro-1-(1H-indazol-5-yl)-2-phenylbut-1-en-1-yl)pyridin-2-yl)oxy)ethyl)amino)but-2-enamide], the 50% growth inhibitory concentration (GI50) was found to be 0.38 ± 0.16 nM in test [1] (setting [3]) and 1.58 ± 0.23 nM in test [2] (setting [4]).

`CNC(=O)/C=C/CNCCOc1ccc(/C(=C(/CCO)c2ccccc2)c2ccc3[nH]nc(F)c3c2)cc1` [Compound 64, (E)-4-((2-(4-((E)-1-(3-fluoro-1H-indazol-5-yl)-4-hydroxy-2-phenylbut-1-en-1-yl)phenoxy)ethyl)amino)-N-methylbut-2-enamide]: the figures for the GI50 in test [1] (setting [3]) and in test [2] (setting [4]) were 153 ± 27.4 nM and 673 ± 167 nM, respectively.

Take `Cl.[2H]C([2H])([2H])N(C(=O)/C=C/CNCCOc1ccc(/C(=C(/CC(F)(F)F)c2ccccc2)c2ccc3[nH]nc(F)c3c2)cn1)C([2H])([2H])[2H]` [Compound 24, (E)-N,N-di(^2H3)methyl-4-((2-((5-((Z)-4,4,4-trifluoro-1-(3-fluoro-1H-indazol-5-yl)-2-phenylbut-1-en-1-yl)pyridin-2-yl)oxy)ethyl)amino)but-2-enamide]: the concentration for 50% growth inhibition (GI50) in test [1] (MCF7, read-out: MCF7 WT GI50 (nM)) was 0.45 ± 0.11 nM; in test [2] (MCF7, read-out: MCF7 Y537S GI50 (nM)), 3.34 ± 1.14 nM.

Consider `CC/C(=C(/c1ccc(OCCNC/C=C/C(=O)NC)cc1)c1ccc2[nH]nc(F)c2c1)c1ccc(F)cc1Cl` [Compound 48, (E)-4-((2-(4-((E)-2-(2-chloro-4-fluorophenyl)-1-(3-fluoro-1H-indazol-5-yl)but-1-en-1-yl)phenoxy)ethyl)amino)-N-methylbut-2-enamide], for which the figures for the GI50 in test [1] (setting [3]) and in test [2] (setting [4]) were 0.8 ± 0.14 nM and 8.25 ± 2.6 nM, respectively.

Consider `CCC/C(=C(/c1ccc(OCCNC/C=C/C(=O)NC)cc1)c1ccc2[nH]nc(F)c2c1)c1ccccc1` [Compound 67, (E)-4-((2-(4-((E)-1-(3-fluoro-1H-indazol-5-yl)-2-phenylpent-1-en-1-yl)phenoxy)ethyl)amino)-N-methylbut-2-enamide], for which the GI50 was determined as 5.38 ± 0.66 nM in test [1] (setting [3]) and 87.7 ± 55 nM in test [2] (setting [4]).

For the molecule `CNC(=O)CCCCNCCOc1ccc(/C(=C(/CC(F)(F)F)c2ccccc2)c2ccc3[nH]nc(F)c3c2)cn1` [Compound 8, (Z)-N-methyl-5-((2-((5-(4,4,4-trifluoro-1-(3-fluoro-1H-indazol-5-yl)-2-phenylbut-1-en-1-yl)pyridin-2-yl)oxy)ethyl)amino)pentanamide], the 50% growth inhibitory concentration (GI50) in test [1] (setting [3]) came out at 0.7 ± 0.27 nM; in test [2] (setting [4]) it was 14.7 ± 0.55 nM.

On to `CNC(=O)/C=C/CNCCOc1ccc(/C(=C(/CC(F)(F)F)c2ccccc2)c2ccc3[nH]nc(F)c3c2)nn1` [Compound 54, (E)-N-methyl-4-((2-((6-((Z)-4,4,4-trifluoro-1-(3-fluoro-1H-indazol-5-yl)-2-phenylbut-1-en-1-yl)pyridazin-3-yl)oxy)ethyl)amino)but-2-enamide], for which the 50% growth inhibitory concentration (GI50) in test [1] (setting [3]) was 892 ± 528 nM; in test [2] (setting [4]), 7690 nM.

Regarding `CNC(=O)/C=C/CNCCOc1ccc(/C(=C(/CC(F)(F)F)c2ccc(F)cc2Cl)c2ccc3[nH]ncc3c2)cn1` [Compound 58, (E)-4-((2-((5-((Z)-2-(2-chloro-4-fluorophenyl)-4,4,4-trifluoro-4,4,4-trifluoro-1-(1H-indazol-5-yl)but-1-en-1-yl)pyridin-2-yl)oxy)ethyl)amino)-N-methylbut-2-enamide], the GI50 in test [1] (setting [3]) is 0.33 ± 0.12 nM; in test [2] (setting [4]) it was 3.97 ± 2.25 nM.

On to `CNC(=O)/C=C/CNCCOc1ccc(/C(=C(/CC(F)(F)F)c2ccc(F)cc2Cl)c2ccc3[nH]ncc3c2)cc1` [Compound 46, (E)-4-((2-(4-((E)-2-(2-chloro-4-fluorophenyl)-4,4,4-trifluoro-1-(1H-indazol-5-yl)but-1-en-1-yl)phenoxy)ethyl)amino)-N-methylbut-2-enamide], for which the GI50 in test [1] (setting [3]) came out at 1.38 ± 0.44 nM; in test [2] (setting [4]) it was 13.8 ± 5.1 nM.

The values are drawn from patent US20180141913A1 (EISAI R & D MANAGEMENT CO., LTD., priority 2016, published 2018).
